Several values for one entry are separate records, joined by “and”; a condition that tells them apart may be missing. Equal values may be shown once. Inconclusive results and toxic doses are left out. No stated cut-off is given here; in the data, active means T/C of 150% or more; inactive means T/C below 125%.
Tested on: L1210 leukemia ip in BDF1 mice, survival T/C
Test: NCI In Vivo Anticancer Drug Screen. Data for tumor model L1210 Leukemia (intraperitoneal) in B6D2F1 (BDF1) mice
Conditions: endpoint: mean survival time, higher = longer survival
How it was run: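 Tumor cells were implanted, animals were treated, and survival was followed. The result divides the treated measurement by the vehicle-control measurement.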

[1] = dose: 100.0 mg/kg/injection, schedule: Q01DX009 (ip), vehicle: saline
[2] = dose: 200.0 mg/kg/injection, schedule: Q01DX009 (ip), vehicle: saline
[3] = dose: 400.0 mg/kg/injection, schedule: Q01DX009 (ip), vehicle: saline
[4] = dose: 100.0 mg/kg/injection, schedule: Q04DX003 (ip), vehicle: Klucel (hydroxypropylcellulose) (HPC)
[5] = dose: 200.0 mg/kg/injection, schedule: Q04DX003 (ip), vehicle: Klucel (hydroxypropylcellulose) (HPC)
[6] = dose: 400.0 mg/kg/injection, schedule: Q04DX003 (ip), vehicle: Klucel (hydroxypropylcellulose) (HPC)
[7] = dose: 100.0 mg/kg/injection, schedule: Q04DX003 (ip), vehicle: saline
[8] = dose: 200.0 mg/kg/injection, schedule: Q04DX003 (ip), vehicle: saline
[9] = dose: 400.0 mg/kg/injection, schedule: Q04DX003 (ip), vehicle: saline
[10] = dose: 12.5 mg/kg/injection, schedule: Q04DX003 (ip), vehicle: saline
[11] = dose: 25.0 mg/kg/injection, schedule: Q04DX003 (ip), vehicle: saline
[12] = dose: 50.0 mg/kg/injection, schedule: Q04DX003 (ip), vehicle: saline
[13] = dose: 100.0 mg/kg/injection, schedule: Q04DX003 (ip), vehicle: saline with Tween-80
[14] = dose: 200.0 mg/kg/injection, schedule: Q04DX003 (ip), vehicle: saline with Tween-80
[15] = dose: 100.0 mg/kg/injection, schedule: Q01DX001 (ip), vehicle: saline
[16] = dose: 200.0 mg/kg/injection, schedule: Q01DX001 (ip), vehicle: saline
[17] = dose: 400.0 mg/kg/injection, schedule: Q01DX001 (ip), vehicle: saline
[18] = dose: 25.0 mg/kg/injection, schedule: Q01DX009 (ip), vehicle: saline with Tween-80
[19] = dose: 50.0 mg/kg/injection, schedule: Q01DX009 (ip), vehicle: saline with Tween-80
[20] = dose: 100.0 mg/kg/injection, schedule: Q04DX002 (ip), vehicle: saline with Tween-80
[21] = dose: 100.0 mg/kg/injection, schedule: Q01DX009 (ip), vehicle: Klucel (hydroxypropylcellulose) (HPC)
[22] = dose: 200.0 mg/kg/injection, schedule: Q01DX009 (ip), vehicle: Klucel (hydroxypropylcellulose) (HPC)

Measured: T/C

CC(C)OCCCO
inactive: [1] 87 % of control | [2] 92 % of control | [3] 97 % of control

O=C(O)C1CCC(C(=O)O)c2ccccc21 (stereo unspecified)
inactive: dose: 12.5 mg/kg/injection, schedule: Q04DX003 (ip), vehicle: Klucel (hydroxypropylcellulose) (HPC) 91 % of control | dose: 25.0 mg/kg/injection, schedule: Q04DX003 (ip), vehicle: Klucel (hydroxypropylcellulose) (HPC) 96 % of control | dose: 50.0 mg/kg/injection, schedule: Q04DX003 (ip), vehicle: Klucel (hydroxypropylcellulose) (HPC) 102 % of control | [4] 93 % of control and 91 % of control | [5] 95 % of control | [6] 88 % of control and 91 % of control

CSCCCN
inactive: [1] 99 % of control | [7] 102 % of control | [2] 95 % of control | [8] 104 % of control | [3] 95 % of control | [9] 96 % of control

Clc1ccc(C2=Nc3c(Cl)ncnc3SC2)cc1
inactive: dose: 100.0 mg/kg/injection, schedule: Q01DX001 (ip), vehicle: saline with Tween-80 106 % of control | dose: 100.0 mg/kg/injection, schedule: Q01DX009 (ip), vehicle: saline with Tween-80 94 % of control | dose: 200.0 mg/kg/injection, schedule: Q01DX001 (ip), vehicle: saline with Tween-80 101 % of control | dose: 200.0 mg/kg/injection, schedule: Q01DX009 (ip), vehicle: saline with Tween-80 99 % of control | dose: 400.0 mg/kg/injection, schedule: Q01DX001 (ip), vehicle: saline with Tween-80 98 % of control | dose: 400.0 mg/kg/injection, schedule: Q01DX009 (ip), vehicle: saline with Tween-80 94 % of control

C/C(=C\Cl)C(=O)O
inactive: [7] 99 % of control | [8] 101 % of control

C=CCN(CC=C)P(=O)(OCC)OCC
inactive: [10] 105 % of control | dose: 25.0 mg/kg/injection, schedule: Q01DX009 (ip), vehicle: saline 97 % of control and 100 % of control | [11] 112 % of control | dose: 50.0 mg/kg/injection, schedule: Q01DX009 (ip), vehicle: saline 98 % of control and 105 % of control | [12] 108 % of control | [1] 104 % of control and 91 % of control | [7] 105 % of control | [2] 97 % of control and 92 % of control | [8] 94 % of control

O=[N+]([O-])c1ccc2c(c1)CCCC2
inactive: dose: 100.0 mg/kg/injection, schedule: Q01DX009 (ip), vehicle: other 98 % of control | dose: 100.0 mg/kg/injection, schedule: Q04DX003 (ip), vehicle: other 105 % of control | dose: 200.0 mg/kg/injection, schedule: Q01DX009 (ip), vehicle: other 104 % of control | dose: 200.0 mg/kg/injection, schedule: Q04DX003 (ip), vehicle: other 96 % of control | dose: 400.0 mg/kg/injection, schedule: Q01DX009 (ip), vehicle: other 116 % of control | dose: 400.0 mg/kg/injection, schedule: Q04DX003 (ip), vehicle: other 92 % of control

Cc1ccc(S(=O)(=O)NC(=O)NCCC(C)C)cc1
inactive: [13] 102 % of control | [14] 100 % of control | dose: 400.0 mg/kg/injection, schedule: Q04DX003 (ip), vehicle: saline with Tween-80 96 % of control

COC(=O)c1ccncc1
inactive: [7] 101 % of control | [8] 98 % of control | [9] 104 % of control

c1cc2c(cc1CCCCCCCCCCc1ccc3c(c1)CCC3)CCC2
inactive: [15] 97 % of control | [16] 97 % of control | [17] 89 % of control

S=c1nccc[nH]1
inactive: [18] 103 % of control | dose: 25.0 mg/kg/injection, schedule: Q04DX002 (ip), vehicle: saline with Tween-80 93 % of control | [19] 105 % of control | dose: 50.0 mg/kg/injection, schedule: Q04DX002 (ip), vehicle: saline with Tween-80 107 % of control | [20] 96 % of control

C=CC[Se]c1ncnc2c1ccn2C1OC(CO)C(O)C1O (stereo unspecified)
inactive: dose: 12.5 mg/kg/injection, schedule: Q01DX005 (ip), vehicle: saline 101 % of control | dose: 25.0 mg/kg/injection, schedule: Q01DX005 (ip), vehicle: saline 107 % of control | dose: 50.0 mg/kg/injection, schedule: Q01DX005 (ip), vehicle: saline 107 % of control | dose: 100.0 mg/kg/injection, schedule: Q01DX005 (ip), vehicle: saline 102 % of control

C[n+]1cccc2ccccc21
inactive: [10] 96 % of control | [11] 93 % of control and 91 % of control | [12] 93 % of control and 95 % of control | [7] 93 % of control and 105 % of control

O=Nc1c(O)ccc2ncccc12
inactive: dose: 75.0 mg/kg/injection, schedule: Q01DX001 (ip), vehicle: other 104 % of control | dose: 150.0 mg/kg/injection, schedule: Q01DX001 (ip), vehicle: other 104 % of control

CC#CCOCC1CO1 (stereo unspecified)
inactive: [1] 100 % of control | dose: 100.0 mg/kg/injection, schedule: Q04DX003 (ip), vehicle: saline sonified 117 % of control | [2] 99 % of control | dose: 200.0 mg/kg/injection, schedule: Q04DX003 (ip), vehicle: saline sonified 119 % of control | [3] 96 % of control | dose: 400.0 mg/kg/injection, schedule: Q04DX003 (ip), vehicle: saline sonified 106 % of control

CCC1=C2C(=O)c3ccccc3C2=C(C)S(=O)(=O)O1
inactive: dose: 12.5 mg/kg/injection, schedule: Q01DX009 (ip), vehicle: saline with Tween-80 95 % of control | [18] 108 % of control | [19] 94 % of control and 111 % of control | [13] 96 % of control | [14] 96 % of control

O=C(Nc1cccc(Cl)c1Cl)Sc1ccccc1O
inactive: [21] 104 % of control | [22] 97 % of control

Nc1cnccc1NCCN1CCN(c2ccccc2)CC1
inactive: [15] 98 % of control

CCCCC(CC)(CCC)CCN (stereo unspecified)
inactive: dose: 5.0 mg/kg/injection, schedule: Q01DX001 (ip), vehicle: carboxymethylcellulose (CMC) 100 % of control | dose: 10.0 mg/kg/injection, schedule: Q01DX001 (ip), vehicle: carboxymethylcellulose (CMC) 110 % of control | dose: 20.0 mg/kg/injection, schedule: Q01DX001 (ip), vehicle: carboxymethylcellulose (CMC) 100 % of control

Cc1ccc(N=Nc2ccc(N(C)C)cc2)cc1
inactive: [21] 90 % of control | [22] 92 % of control | dose: 400.0 mg/kg/injection, schedule: Q01DX009 (ip), vehicle: Klucel (hydroxypropylcellulose) (HPC) 90 % of control

CC(O)C(O)CC(/C=N/NC(=O)c1ccccc1)=N/NC(=O)c1ccccc1 (stereo unspecified)
inactive: [4] 107 % of control | [5] 115 % of control | [6] 109 % of control

O=S(=O)(O)CBr
inactive: [15] 107 % of control | [1] 91 % of control | [7] 100 % of control | [16] 106 % of control | [2] 96 % of control | [8] 100 % of control | [17] 109 % of control | [3] 98 % of control | [9] 106 % of control

Cc1cccnc1N
inactive: [20] 104 % of control | dose: 200.0 mg/kg/injection, schedule: Q04DX002 (ip), vehicle: saline with Tween-80 107 % of control

Source: PubChem BioAssay AID248 (DTP/NCI, 2004)
